Assay results as given in patent publication US20110318393A1, “Substituted Pyrazole Compounds” (MIIKANA THERAPEUTICS, INC., priority 2008, published 2011).

Columns and labels:
recombinant Aurora A = molecular target: T1, recombinant Aurora A (Homo sapiens, UniProt O14965); experiment: Aurora A (Aurora 2) inhibition assay, Z'-Lyte kinase assay; format: biochemical; settings: ATP 10 μM, 1 h; less than or equal to 100 nM
T1 construct: purchased Upstate, Lake Placid, N.Y
T1 sequence (O14965 1-403): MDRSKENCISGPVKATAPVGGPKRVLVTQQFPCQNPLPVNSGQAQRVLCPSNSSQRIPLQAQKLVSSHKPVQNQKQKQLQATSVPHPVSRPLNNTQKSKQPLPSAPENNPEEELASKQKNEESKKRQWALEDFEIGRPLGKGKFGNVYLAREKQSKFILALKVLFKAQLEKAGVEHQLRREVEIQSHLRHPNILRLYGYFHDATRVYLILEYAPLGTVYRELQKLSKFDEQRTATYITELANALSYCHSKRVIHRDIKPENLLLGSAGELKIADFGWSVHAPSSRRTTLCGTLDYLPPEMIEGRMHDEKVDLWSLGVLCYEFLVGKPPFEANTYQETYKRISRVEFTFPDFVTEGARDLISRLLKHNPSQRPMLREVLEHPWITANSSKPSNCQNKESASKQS
Procedure: Compounds were tested for their potency against recombinant Aurora A (Upstate, Lake Placid, N.Y.) using the PanVera Z′-Lyte kinase assay kit-Ser/Thr 1 peptide (Invitrogen, Carlsbad, Calif.). Assays were carried out in kinase assay buffer (50 mM HEPES, pH 7.5, 10 mM MgCl2, 5 mM EGTA, 0.05% Brij-35, 2 mM DTT). Test compounds were initially dissolved in DMSO at 100× the highest tested concentration, then serially diluted to 4× test concentrations in kinase assay buffer. Next, Aurora A (final concentration 200-500 ng/mL), Z′-Lyte Ser/Thr 1 peptide (final concentration 2 μM) and ATP (final concentration 10 μM) were added according to the manufacturer's instructions. Assays were carried out in half-area 96-well white polystyrene assay plates (Corning, Corning, N.Y.) in a final volume of 20 μl. The reaction was allowed to proceed for 1 h at room temperature in the dark, at which point the development reagent and stop reagent were added according to the manufacturer's instructions. Coumarin (Ex. 400 nm, Em. 465 nm) and fluorescein (Ex. 400 nm, Em. 565 nm) fluorescence values were measured on a SpectraFluor Plus plate reader (Tecan, Durham, N.C.). The emission ratio (coumarin/fluorescein) was determined and used to calculate the percent phosphorylation for each well. Wells containing substrate but no kinase and wells containing a phosphopeptide control were used to set 0% and 100% phosphorylation values, respectively. Typically 20-40% of the substrate was phosphorylated in wells without inhibitor. Dose-response curves of relative Aurora A activity vs. inhibitor concentration were plotted with Grafit (Erithacus Software, Horley, Surrey, UK).

[1] = molecular target: T2, N-terminal GST-tagged recombinant human Flt3, residues 564-end (Homo sapiens, UniProt P36888); experiment: Flt3 kinase inhibition assay (33P-ATP filter assay); format: biochemical; settings: 40 minutes, room temperature; less than or equal to 100 nM
T2 construct: recombinant human Flt3, residues 564-end; GST (N); purchased Upstate USA Inc, Charlottesville, Va
T2 sequence (P36888 564-993 limits assumed): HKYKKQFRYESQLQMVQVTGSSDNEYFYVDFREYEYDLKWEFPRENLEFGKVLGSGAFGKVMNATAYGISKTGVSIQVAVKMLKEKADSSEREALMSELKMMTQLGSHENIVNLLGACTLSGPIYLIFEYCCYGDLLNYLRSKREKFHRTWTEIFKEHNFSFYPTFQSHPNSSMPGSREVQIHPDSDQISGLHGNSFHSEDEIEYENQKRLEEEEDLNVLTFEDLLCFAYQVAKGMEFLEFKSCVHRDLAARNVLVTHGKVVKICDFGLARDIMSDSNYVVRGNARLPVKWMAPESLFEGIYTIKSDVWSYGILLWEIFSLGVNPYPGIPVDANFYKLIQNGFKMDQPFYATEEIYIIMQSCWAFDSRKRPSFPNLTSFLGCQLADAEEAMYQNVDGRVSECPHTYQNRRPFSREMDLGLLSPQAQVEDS
Procedure: Compounds were assayed for Flt3 kinase inhibitory activity using N-terminal GST-tagged recombinant human Flt3, residues 564-end (Upstate USA Inc, 706 Forest Street, Charlottesville, Va.). Serial dilutions of compound were assayed in a final reaction volume of 25 μL by incubating a solution of the above Flt3 kinase (5-10 mU), 8 mM MOPS (3-(N-morpholino)propanesulfonic acid) pH 7.0, 0.2 mM EDTA (ethylenediamine tetracetic acid), 50 μM amino acid sequence EAIYAAPFAKKK (Upstate USA Inc, 706 Forest Street, Charlottesville, Va.), and 10 mM magnesium acetate and [γ-^33P-ATP] (specific activity of about 500 cpm/pmol, concentration as required). The reaction was initiated by the addition of the magnesium acetate and [γ-^33P-ATP] mixture. After incubation for 40 minutes at room temperature, the reaction was stopped by the addition of 5 μL of a 3% phosphoric acid solution. A 10 μL aliquote of the reaction was then spotted onto a P30 filtermat (PerkinElmer, Wellesley, Mass.) and washed three times for five minutes in 75 mM phosphoric acid and once in methanol prior to drying and scintillation counting. Inhibition of Flt3 activity was determined by comparison to assays that contained no inhibitor.

IC50 (recombinant Aurora A)	IC50 [1]	Compound
≤ 100 nM	≤ 100 nM	Cc1cc(Nc2cc(N3CCN(c4ccncc4)CC3)nc(/C=C/c3ccccc3)n2)n[nH]1 [Compound 22, (E)-N-(5-methyl-1H-pyrazol-3-yl)-6-(4-(pyridin-4-yl)piperazin-1-yl)-2-styrylpyrimidin-4-amine]
≤ 100 nM	≤ 100 nM	Cc1cc(Nc2cc(N3CCC(N4CCCCC4)CC3)nc(/C=C/c3ccccc3)n2)n[nH]1 [Compound 5, (E)-6-(1,4′-bipiperidin-1′-yl)-N-(5-methyl-1H-pyrazol-3-yl)-2-styrylpyrimidin-4-amine]
